Results from patent publication US8362000B2, “Azetidinyl diamides as monoacylglycerol lipase inhibitors” (Janssen Pharmaceutica NV, priority 2009, dated 2013).
Residue numbers refer to the chain shown, from its start. Like-named read-outs stand apart in the source and are kept apart here.

Legend:
mutant MGL = molecular target: T1, mutant MGL (Homo sapiens, UniProt Q99685, L169S/L176S); experiment: MGL ThermoFluor assay - mutant; assay type: binding
T1 sequence (Q99685 1-303 L169S/L176S): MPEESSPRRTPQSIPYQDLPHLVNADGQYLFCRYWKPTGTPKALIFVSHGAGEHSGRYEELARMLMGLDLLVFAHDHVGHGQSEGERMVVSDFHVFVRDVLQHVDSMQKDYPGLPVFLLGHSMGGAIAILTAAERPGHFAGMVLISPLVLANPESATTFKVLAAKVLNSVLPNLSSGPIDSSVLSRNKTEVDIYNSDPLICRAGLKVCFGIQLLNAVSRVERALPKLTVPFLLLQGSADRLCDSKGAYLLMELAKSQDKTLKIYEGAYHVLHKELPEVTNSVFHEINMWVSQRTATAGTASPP

[1] = molecular target: T2, purified wild type MGL (wt-MGLL 6H-11-313) (Homo sapiens, UniProt Q99685)
T2 sequence (Q99685 1-303): T1 sequence (Q99685 1-303 L169S/L176S) with S169L, S176L

[2] = ThermoFluor, compound concentration measured by qNMR, read-out: MGL mutant ThermoFluor qKd (using qNMR conc.)
[3] = compound concentration measured by qNMR, read-out: MGL mutant ThermoFluor qKd (using qNMR conc.)
[4] = ThermoFluor, compound concentration measured by qNMR, read-out: MGL mutant ThermoFluor qKd (μM) (using qNMR conc.)
[5] = ThermoFluor thermal stability binding assay, read-out: MGL mutant ThermoFluor Kd
[6] = ThermoFluor concentration-response, read-out: MGL mutant ThermoFluor Kd

SMILES | IC50 [1] [nM] | Kd (mutant MGL; [4]) [µM] | further results
O=C(c1ccc2c(ccn2-c2ccc(C(F)(F)F)cn2)c1)N1CC(N2CCN(C(=O)c3nccs3)CC2)C1 [Cpd 1314, 5-({3-[4-(1,3-Thiazol-2-ylcarbonyl)piperazin-1-yl]azetidin-1-yl}carbonyl)-1-[5-(trifluoromethyl)pyridin-2-yl]-1H-indole] | < 5 |  | Kd (mutant MGL; [2]): 0.001 µM
O=C(c1ccc2c(-c3cccc(F)c3)c[nH]c2c1)N1CC(N2CCN(C(=O)c3nccs3)CC2)C1 [Cpd 1319] | < 5 |  | Kd (mutant MGL; [3]): 0.001 µM
O=C(c1cc(-c2cccc(C(F)(F)F)c2)cs1)N1CC(N2CCN(C(=O)c3nccs3)CC2)C1 [Cpd 1321] | < 5 | 0.067 | 
O=C(c1cc[nH]c1)N1CCN(C2CN(C(=O)c3ccc(-c4cccc(C(F)(F)F)c4)cc3)C2)CC1 [Cpd 1324] | < 5 |  | Kd (mutant MGL; [5]): 0.016 µM
O=C(c1ccc(-c2nc(-c3ccccc3Cl)cs2)cc1)N1CC(N2CCN(C(=O)c3nccs3)CC2)C1 [Cpd 1328] | < 5 |  | Kd (mutant MGL; [6]): 0.002 µM
O=C(c1ccc(-c2nc(-c3cccc(C(F)(F)F)c3)cs2)cc1)N1CC(N2CCN(C(=O)c3nccs3)CC2)C1 [Cpd 1332] | < 5 |  | Kd (mutant MGL; [2]): 0.008 µM
O=C(c1ccc(-n2cc(-c3ccc(Cl)cc3)cn2)cc1)N1CC(N2CCN(C(=O)c3nccs3)CC2)C1 [Cpd 1334] | < 5 | 0.08 | 
O=C(c1ccc(-c2cccc(C(F)(F)F)c2)cc1)N1CC(N2CCN(C(=O)c3ccc(Br)o3)CC2)C1 [Cpd 1335] | < 5 | 0.011 | 
O=C(c1nccs1)N1CCN(C2CN(C(=O)c3ccc4c(ccn4-c4ccc(F)cc4)c3F)C2)CC1 [Cpd 1348, 4-Fluoro-1-(4-fluorophenyl)-5-({3-[4-(1,3-thiazol-2-ylcarbonyl)piperazin-1-yl]azetidin-1-yl}carbonyl)-1H-indole] | < 5 |  | Kd (mutant MGL; [3]): 0.002 µM
Cc1cc(C(=O)N2CC(N3CCN(C(=O)c4nccs4)CC3)C2)cc2ccn(-c3ccc(F)cc3)c12 [Cpd 1355, 1-(4-Fluorophenyl)-7-methyl-5-({3-[4-(1,3-thiazol-2-ylcarbonyl)piperazin-1-yl]azetidin-1-yl}carbonyl)-1H-indole] | < 5 |  | Kd (mutant MGL; [3]): 0.002 µM
O=C(c1ccc2c(ccn2-c2cccc(C(F)(F)F)c2)c1)N1CC(N2CCN(C(=O)c3nccs3)CC2)C1 [Cpd 1356, 5-({3-[4-(1,3-Thiazol-2-ylcarbonyl)piperazin-1-yl]azetidin-1-yl}carbonyl)-1-[3-(trifluoromethyl)phenyl]-1H-indole] | < 5 |  | Kd (mutant MGL; [6]): 0.002 µM
O=C(c1ccc2c(ccn2-c2ccc(Cl)c(F)c2)c1)N1CC(N2CCN(C(=O)c3nccs3)CC2)C1 [Cpd 1372] | < 5 | 0.002 | 
O=C(c1ccc2c(ccn2-c2cc(F)ccc2F)c1)N1CC(N2CCN(C(=O)c3nccs3)CC2)C1 [Cpd 1373] | < 5 | 0.004 | 
O=C(c1ccc2c(cnn2-c2cccc(OC(F)(F)F)c2)c1)N1CC(N2CCN(C(=O)c3nccs3)CC2)C1 [Cpd 1374] | < 5 | 0.007 | 
Cc1cc(-n2ccc3cc(C(=O)N4CC(N5CCN(C(=O)c6nccs6)CC5)C4)ccc32)ccc1C#N [Cpd 1375, 2-Methyl-4-[5-({3-[4-(1,3-thiazol-2-ylcarbonyl)piperazin-1-yl]azetidin-1-yl}carbonyl)-1H-indol-1-yl]benzonitrile] | < 5 | 0.003 | 
O=C(c1ccc2nn(-c3cccc(OC(F)(F)F)c3)cc2c1)N1CC(N2CCN(C(=O)c3nccs3)CC2)C1 [Cpd 1376] | < 5 | 0.013 | 
Cc1cc(-n2ccc3cc(C(=O)N4CC(N5CCN(C(=O)c6nccs6)CC5)C4)ccc32)ccn1 [Cpd 1410, 1-(2-Methylpyridin-4-yl)-5-({3-[4-(1,3-thiazol-2-ylcarbonyl)piperazin-1-yl]azetidin-1-yl}carbonyl)-1H-indole] | 89 |  | Kd (mutant MGL; [2]): 0.014 µM
CC(c1ccccc1)n1ncc2cc(C(=O)N3CC(N4CCN(C(=O)c5nccs5)CC4)C3)ccc21 (stereo not drawn) [Cpd 1411, 1-(1-Phenylethyl)-5-({3-[4-(1,3-thiazol-2-ylcarbonyl)piperazin-1-yl]azetidin-1-yl}carbonyl)-1H-indazole] | 12 |  | Kd (mutant MGL; [3]): 0.001 µM
O=C(c1ccc(-n2nccc2-c2ccc(F)cc2)cc1)N1CC(N2CCN(C(=O)c3nccs3)CC2)C1 [Cpd 1412] | 87 |  | Kd (mutant MGL; [5]): 0.241 µM
Cc1cn(-c2ccc(C(=O)N3CC(N4CCN(C(=O)c5nccs5)CC4)C3)cc2)c2ccccc12 [Cpd 1413] | 15 | 0.003 | 
O=C(c1nccs1)N1CCN(C2CN(C(=O)c3ccc4c(ccn4-c4ccc(F)cc4)c3Cl)C2)CC1 [Cpd 1414, 4-Chloro-1-(4-fluorophenyl)-5-({3-[4-(1,3-thiazol-2-ylcarbonyl)piperazin-1-yl]azetidin-1-yl}carbonyl)-1H-indole] | 11 |  | Kd (mutant MGL; [3]): 0.003 µM

SMILES | IC50 [1] [nM] | Kd (mutant MGL; [4]) [µM] | further results
Cc1cc2c(ccn2-c2ccc(F)cc2)cc1C(=O)N1CC(N2CCN(C(=O)c3nccs3)CC2)C1 [Cpd 1415] | 115 |  | Kd (mutant MGL; [3]): 0.011 µM
O=C(c1nccs1)N1CCN(C2CN(C(=O)c3cc4ccn(-c5ccc(F)cc5)c4cc3Cl)C2)CC1 [Cpd 1416] | 39 |  | Kd (mutant MGL; [3]): 0.015 µM
N#Cc1cc(-n2ccc3cc(C(=O)N4CC(N5CCN(C(=O)c6nccs6)CC5)C4)ccc32)ccc1F [Cpd 1417, 2-Fluoro-5-[5-({3-[4-(1,3-thiazol-2-ylcarbonyl)piperazin-1-yl]azetidin-1-yl}carbonyl)-1H-indol-1-yl]benzonitrile] | < 5 |  | Kd (mutant MGL; [6]): 0.025 µM
NC(=O)c1cc(-n2ccc3cc(C(=O)N4CC(N5CCN(C(=O)c6nccs6)CC5)C4)ccc32)ccc1F [Cpd 1418, 2-fluoro-5-[5-({3-[4-(1,3-thiazol-2-ylcarbonyl)piperazin-1-yl]azetidin-1-yl}carbonyl)-1H-indol-1-yl]benzamide] | 16 |  | Kd (mutant MGL; [6]): 0.054 µM
O=C(c1ccc2c(cnn2-c2cccc(C(F)(F)F)c2)c1)N1CC(N2CCN(C(=O)c3nccs3)CC2)C1 [Cpd 1419] | < 5 |  | Kd (mutant MGL; [5]): 0.004 µM
O=C(c1ccc2nn(-c3cccc(C(F)(F)F)c3)cc2c1)N1CC(N2CCN(C(=O)c3nccs3)CC2)C1 [Cpd 1420] | 5 | 0.08 | 
O=C(c1ccc2nn(-c3cccc(OC(F)(F)F)c3)cc2c1)N1CC(N2CCN(C(=O)c3cscn3)CC2)C1 [Cpd 1422] | 14 | 0.195 | 
O=C(c1ccc2c(ccn2-c2ccc(F)cc2)c1)N1CC(N2CCN(C(=O)c3ccc(Cl)s3)CC2)C1 [Cpd 1423] | 278 | 0.176 | 
O=C(c1cccc(F)c1)N1CCN(C2CN(C(=O)c3ccc4c(ccn4-c4ccc(F)cc4)c3)C2)CC1 [Cpd 1424] | 75 | 0.124 | 
O=C(c1ccc2c(ccn2-c2ccc(F)cc2)c1)N1CC(N2CCN(C(=O)c3ccc(Cl)o3)CC2)C1 [Cpd 1425] | 9 | 0.019 | 
O=C(c1ccc2c(ccn2-c2ccc(F)cc2)c1)N1CC(N2CCN(C(=O)c3ncco3)CC2)C1 [Cpd 1426] | < 5 | 0.029 | 
O=C(c1ccc2c(ccn2-c2ccc(F)cc2)c1)N1CC(N2CCN(C(=O)c3ccc(F)s3)CC2)C1 [Cpd 1427] | 6 | 0.01 | 
O=C(c1ccc2c(ccn2-c2ccc(F)cc2)c1)N1CC(N2CCN(C(=O)c3cocn3)CC2)C1 [Cpd 1428] | 14 | 0.018 | 
O=C(c1ccc2c(ccn2-c2ccc(F)cc2)c1)N1CC(N2CCN(C(=O)c3cnco3)CC2)C1 [Cpd 1429] | 36 | 0.097 | 
O=C(c1ccc2c(c1)C(Cc1cccc(C(F)(F)F)c1)(Cc1cccc(C(F)(F)F)c1)C(=O)N2Cc1cccc(C(F)(F)F)c1)N1CC(N2CCN(C(=O)c3nccs3)CC2)C1 [Cpd 1430, 5-({3-[4-(1,3-Thiazol-2-ylcarbonyl)piperazin-1-yl]azetidin-1-yl}carbonyl)-1,3,3-tris[3-(trifluoromethyl)benzyl]-1,3-dihydro-2H-indol-2-one] | 9890 |  | Kd (mutant MGL; [6]): 50 µM
O=C(CN1C(=O)c2ccccc2S1(=O)=O)N1CC(N2CCN(C(=O)c3nccs3)CC2)C1 [Cpd 1432] | > 16700 | > 28.4 | 
O=C(CCCc1ccccc1)N1CC(N2CCN(C(=O)c3nccs3)CC2)C1 [Cpd 1434] | > 16700 |  | Kd (mutant MGL; [5]): 53.8 µM
O=C(c1ccccc1)N1CCc2cccc(C(=O)N3CC(N4CCN(C(=O)c5nccs5)CC4)C3)c2C1 [Cpd 1437] | > 16700 |  | Kd (mutant MGL; [5]): 33.3 µM
O=C(c1nc2cc(F)ccc2[nH]1)N1CC(N2CCN(C(=O)c3nccs3)CC2)C1 [Cpd 1443] | > 16700 |  | Kd (mutant MGL; [5]): > 31.2 µM
O=C(c1cscn1)N1CCN(C2CN(C(=O)c3cc4cc(Cl)ccc4o3)C2)CC1 [Cpd 1444] | > 16700 |  | Kd (mutant MGL; [5]): > 31 µM
O=C(c1cc2ccc(C(F)(F)F)cc2[nH]1)N1CC(N2CCN(C(=O)c3ccns3)CC2)C1 [Cpd 1445] | > 16700 |  | Kd (mutant MGL; [5]): > 31.2 µM
